Assay results taken from article PMC13095444, “Discovery of RGS2-FBXO44 interaction inhibitors using a cell-based NanoBit assay” (Molecular Pharmacology, 2025).

B1: LgBiT-FBXO44 (natural protein, UniProt Q9H4M3 1-255, looked up)
chain: MAVGNINELPENILLELFTHVPARQLLLNCRLVCSLWRDLIDLVTLWKRKCLREGFITEDWDQPVADWKIFYFLRSLHRNLLHNPCAEEGFEFWSLDVNGGDEWKVEDLSRDQRKEFPNDQVKKYFVTSYYTCLKSQVVDLKAEGYWEELMDTTRPDIEVKDWFAARPDCGSKYQLCVQLLSSAHAPLGTFQPDPATIQQKSDAKWREVSHTFSNYPPGVRYIWFQHGGVDTHYWAGWYGPRVTNSSITIGPPLP
notes: F-box Only Protein 44 (FBXO44); cloned in-house into pBiT1.3-N[CMV/LgBiT/Hygro]; The linker between LgBiT and FBXO44 is not described; also called N-terminally tagged FBXO44; source: HEK-293T, transiently transfected, in live cells; not shown: LgBiT, N-terminal, kept

What was measured:
[1] = tested on: HEK-293T-RGS2-FBXO44 NanoBit cells; test: Cell viability assay (GF-AFC fluorescence) multiplexed with NanoBit; assay type: cell-based, Human; settings: for Viability (% of Control): 16–18 hours
Protocol: The cells were plated in DMEM without phenol red (Gibco, #21063), 0.1% BSA in a white, tissue culture-treated 384-well plate (Perkin Elmer) at 15,000 cells/well, unless indicated otherwise, and allowed to attach. The plate was centrifuged at 212 × g for 30 seconds to aid in even cell adherence. Compound treatments were initiated 4–5 hours after plating. Following indicated treatment times, media was removed from the plate using BioTek ELx405 plate washer. Additionally, 10 μL of Hank’s Balanced Salt solution (HBSS) with 0.1% BSA was added to each well, followed by 5 μL of glycyl-phenylalanyl-aminofluorocoumarin (GF-AFC; MP Biomedicals) diluted 1:1000 in 100 mM HEPES. Plates were then centrifuged at 212 × g for 30 seconds and then incubated at 37 °C for 30 minutes. Fluorescence was detected on a Synergy Neo2 multimode plate reader (BioTek/Agilent).
Our primary assay using the HEK-293T RGS2-FBXO44 NanoBit cell line was extensively optimized to ensure maximum quality for screening. Coupling a fluorescent cell viability assay with our screen would allow us to rule out cytotoxic compounds while also hopefully reducing outliers from pipetting errors while plating cells. Thus, we multiplexed our NanoBit assay with cell viability using a cell-permeable fluorogenic protease substrate (glycyl-phenylalanyl-aminofluorocoumarin; GF-AFC; [Niles et al, 2007]), which can be combined with a luminescent readout without interfering with the luciferase signal. We previously utilized a similar multiplexing strategy in several screens ([Sjögren et al, 2012]; [Raveh et al, 2014]; [Sjögren et al, 2015]). We assessed and optimized treatment conditions (time, temperature, and reagent volume), cell density, buffer composition, and DMSO tolerance. In addition to the supplied proprietary LCS buffer (Promega), we also tested DMEM, 0.1% BSA, PBS, and HBSS (Supplemental Fig. 1A–C). […] The luminescent signal was stable up to 45 minutes after reagent addition, and we chose to run subsequent assays using 20 minutes of incubation time (Supplemental Fig. 1E). We also observed no effect on either viability or luminescence signal at DMSO concentrations <1% (Data not shown).
(§1) HEK-293T-RGS2-FBXO44 NanoBit cells were treated for 16–18 hours with compound at 100 μM. This relatively high concentration was chosen because of the challenging nature of our assay (intracellular PPI inhibition). Parental HEK-293T cells were used as a negative control. […] Based on these criteria, 97 compounds were identified as hits from our primary screen (6.1% initial hit rate). To confirm hits, the same assay was repeated in triplicate, which delivered 34 compounds that reached the threshold for inhibition in at least 2 replicates with <25% cell toxicity (Fig. 2C; Supplemental Table 1), thus rendering a final hit rate of 2.1%.

RGS2-FBXO44 interaction = target: T1, RGS2-FBXO44 interaction (Homo sapiens, UniProt P41220); test: RGS2-FBXO44 NanoBit assay (HEK-293T RGS2-SmBiT/LgBiT-FBXO44 stable clone #6); assay type: cell-based; settings: for % Inhibition @ 100 μM of RGS2-FBXO44 NanoBit signal: 16–18 hours, fresh powder, luminescence normalized to viability, vs nontreated cells; for IC50: concentrations 500 to 0.01 μM, RLU normalized to viability (RFU), read-out: IC50 (μM), inhibition of RGS2-FBXO44 NanoBit signal
T1 construct: expressed in transfected cells
T1 sequence (P41220 1-211): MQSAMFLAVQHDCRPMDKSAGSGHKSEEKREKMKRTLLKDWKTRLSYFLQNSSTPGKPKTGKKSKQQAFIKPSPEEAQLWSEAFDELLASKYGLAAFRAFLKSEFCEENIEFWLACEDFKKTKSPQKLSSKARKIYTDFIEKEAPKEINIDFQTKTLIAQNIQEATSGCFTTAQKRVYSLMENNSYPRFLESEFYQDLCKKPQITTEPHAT
Protocol: Nano-Glo Live Cell Substrate (LCS) was diluted 1:50 in HBSS to form a 2× stock, and then, 15 μL was added to each well. Plates were shaken on an orbital shaker at 500 rpm for 5 minutes protected from light and then spun down at 1000 rpm for 30 seconds. Plates were incubated at room temperature for 20 minutes, and then, luminescence was detected on a Synergy Neo2 multimode plate reader.
as §1
Fresh powders of 20 compounds were purchased and reassayed for their ability to inhibit the RGS2-FBXO44 NanoBit signal, using the same assay paradigm as in the primary screen (Fig. 3; Table 1). […] Nevertheless, all compounds were confirmed to inhibit the RGS2-FBXO44 NanoBit signal at this high concentration.
We next assessed the concentration-dependent effect of our 20 hits. Compounds were assayed at concentrations ranging from 500 to 0.01 μM. NanoBit luminescence (relative luminescence units) was normalized to viability (RFU) and presented as a percentage of untreated cells.

RGS2-SmBiT = target: T2, RGS2-SmBiT (UniProt P41220 1-211); test: split reporter (BiFC, NanoBiT); NanoBiT luminescence in live, transiently transfected HEK-293T cells; every combination of RGS2 and FBXO44 NanoBiT constructs; 15,000 cells/well, 2 hours incubation; settings: partners not purified
T2 construct: Regulator of G protein signaling 2 (RGS2); cloned in-house into pBiT2.3-C[CMV/SmBiT/Blast]; The linker between RGS2 and SmBiT is not described; In the BiBiT construct RGS2-SmBiT and LgBiT-FBXO44 are expressed from one plasmid with a bidirectional CMV promoter; also called C-terminally tagged RGS2; source: HEK-293T, transiently transfected, in live cells; not shown: SmBiT, C-terminal, kept
T2 sequence (looked up): T1 sequence (P41220 1-211)

fold luminescence signal against the opposite tagging (RGS2-LgBiT with SmBiT-FBXO44) (RGS2-SmBiT) [fold] | Molecule | Viability (% of Control) ([1]; 100 μM, fresh powder) | % Inhibition @ 100 μM of RGS2-FBXO44 NanoBit signal (RGS2-FBXO44 interaction) | IC50 (RGS2-FBXO44 interaction) [µM] | Cell toxicity (in words) ([1]; 100 μM) | Cell toxicity at 100 μM ([1]; fresh powder) [%]
– | Cc1cc(N2CCCC2)nc(N2CCN(C(=O)c3ccccc3C)CC2)n1 [Compound 3] | 54.1∗∗∗∗ % of Control | 40.6∗∗∗∗ % | 78.9 | – | –
– | CCOc1ccc(C(=O)Nc2ccc3c(c2)N(C(=O)C(C)C)CCC3)cc1OCC [Compound 5] | 120.5 % of Control | 44.5∗∗∗∗ % | 151 | – | –
– | CCOc1ccc(S(=O)(=O)N(Cc2cccn2C)C2CC2)cc1F [Compound 6] | 116.6 % of Control | 36.8∗∗∗∗ % | 25.6 | – | –
– | O=C(N(CCc1ccccc1)Cc1ccccn1)C12CC3CC(CC(C3)C1)C2 [Compound 13] | 7.5∗∗∗∗ % of Control | – | – | almost complete cell toxicity | < 90
– | CCCCNC(=O)c1nnn(-c2ccccc2)c1C(C)C [Compound 16] | 93.7 % of Control | 75.8∗∗∗∗ % | 54.8 | – | –
– | CCOc1ccc(S(=O)(=O)N2CCCCCC2)cc1C [Compound 8] | 80.6∗∗∗∗ % of Control | 86.1∗∗∗∗ % | 9.2 | – | –
– | O=S(=O)(C1CC1)N1CCCCC(c2ccc(Cl)cc2)C1 (stereo not shown) [Compound 9] | 103.6 % of Control | 74.5∗∗∗∗ % | 9.7 | – | –
– | O=C(Cc1ccccc1Cl)N(CCc1cccs1)C1CCOCC1 [Compound 18] | 81.5∗∗∗∗ % of Control | 51.2∗∗∗∗ % | 122 | – | –
– | O=C(NCC1(O)CCOc2ccccc21)C1(c2ccc(Cl)cc2)CCCC1 (stereo not shown) [Compound 12] | 116.6 % of Control | 32.6∗∗∗∗ % | 5.8 | – | –
3.5 | B1 | – | – | – | – | –
